≈ marks a conversion by molar mass, not a printed value.
Legend:
Experiment in all cases: in vitro antibacterial evaluation, MIC by broth dilution
Type in all cases: cell-based
Escherichia coli = settings: broth dilution, 18 hours at 35° C.; for MIC Escherichia coli (ATCC 25922): strain ATCC 25922; for MIC Escherichia coli (GC 4559): strain GC 4559; for MIC Escherichia coli (GC 4560): strain GC 4560
Summary of the method: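 MIC is the lowest antibiotic concentration (tested 64-0.06 μg/mL) preventing growth of a 5×10^5 CFU/mL inoculum. Determined by broth dilution in Mueller-Hinton II medium following NCCLS standard M7-A2.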

Enterococcus sp. = settings: broth dilution, 18 hours at 35° C.; for MIC Enterococcus faecalis (ATCC 29212): strain ATCC 29212; for MIC Enterococcus faecalis (GC 2242): strain GC 2242; for MIC Enterococcus faecium (GC 2243): strain GC 2243; for MIC Enterococcus faecalis (GC 2691): strain GC 2691; for MIC Enterococcus faecalis (GC 3059): strain GC 3059; for MIC Enterococcus faecalis (GC 4552): strain GC 4552; for MIC Enterococcus faecalis (GC 4553): strain GC 4553; for MIC Enterococcus faecalis (GC 4554): strain GC 4554; for MIC Enterococcus faecium (GC 4556): strain GC 4556; for MIC Enterococcus faecium (GC 4557): strain GC 4557; for MIC Enterococcus avium (GC 4558): strain GC 4558; for MIC Enterococcus faecalis (GC 6189): strain GC 6189
Protocol: (§1) Methods for in vitro Antibacterial Evaluation (Table 1)
(§2) The minimum inhibitory concentration (MIC), the lowest concentration of the antibiotic which inhibits growth of the test organism, is determined by the broth dilution method using Muller-Hinton II […] (Baltimore Biological Laboratories) following the recommendations of the National Committee for Clinical Laboratory Standards [Methods for dilution antimicrobial susceptibility tests for bacteria that grow aerobically, approved standard M7-A2, National Committee for Clinical Laboratory Standards, Villanova, Pa.].
(§3) An inoculum level of 5×10^5 CFU/mL, and a range of antibiotic concentrations (64-0.06 μg/mL) is used. […] The test organisms include a spectrum of Gram-positive bacteria comprised of Staphylococcus sp., Streptococcus sp. and Enterococcus sp. These organisms include recent clinical isolates that are resistant to methicillin, penicillin and/or vancomycin.

Streptococcus sp. = settings: broth dilution, 18 hours at 35° C.; for MIC Streptococcus pneumoniae (ATCC 6301): strain ATCC 6301; for MIC Streptococcus pneumoniae (GC 1894): strain GC 1894; for MIC Streptococcus pyogenes (GC 4563): strain GC 4563; for MIC Streptococcus agalactiae (GC 4564): strain GC 4564; for MIC Streptococcus pneumoniae (GC 4565): strain GC 4565
Protocol: as §1, §2, §3

Staphylococcus sp. = settings: broth dilution, 18 hours at 35° C.; for MIC Staphylococcus aureus (ATCC 29213): strain ATCC 29213; for MIC Staphylococcus aureus (GC 1131): strain GC 1131; for MIC Staphylococcus aureus (GC 3051): strain GC 3051; for MIC Staphylococcus aureus (GC 3053): strain GC 3053; for MIC Staphylococcus aureus (GC 4541): strain GC 4541; for MIC Staphylococcus aureus (GC 4542): strain GC 4542; for MIC Staphylococcus aureus-SMITH (GC 4543): strain GC 4543; for MIC Staphylococcus aureus (GC 4544): strain GC 4544; for MIC Staphylococcus aureus (GC 4545): strain GC 4545; for MIC Staphylococcus haemolyticus (GC 4546): strain GC 4546; for MIC Coagulase Negative Staphylococcus (GC 4547): strain GC 4547; for MIC Coagulase Negative Staphylococcus (GC 4548): strain GC 4548; for MIC Coagulase Negative Staphylococcus (GC 4549): strain GC 4549; for MIC Coagulase Negative Staphylococcus (GC 4551): strain GC 4551; for MIC Coagulase Negative Staphylococcus (GC 6257): strain GC 6257
Protocol: as §1, §2, §3

| Structure (SMILES) | MIC Escherichia coli (ATCC 25922) (Escherichia coli) | MIC Escherichia coli (GC 4559) (Escherichia coli) | MIC Escherichia coli (GC 4560) (Escherichia coli) | MIC Enterococcus faecalis (ATCC 29212) (Enterococcus sp.) | MIC Enterococcus faecalis (GC 2242) (Enterococcus sp.) | MIC Enterococcus faecium (GC 2243) (Enterococcus sp.) | MIC Enterococcus faecalis (GC 2691) (Enterococcus sp.) | MIC Enterococcus faecalis (GC 3059) (Enterococcus sp.) | MIC Enterococcus faecalis (GC 4552) (Enterococcus sp.) | MIC Enterococcus faecalis (GC 4553) (Enterococcus sp.) | MIC Enterococcus faecalis (GC 4554) (Enterococcus sp.) | MIC Enterococcus faecium (GC 4556) (Enterococcus sp.) | MIC Enterococcus faecium (GC 4557) (Enterococcus sp.) | MIC Enterococcus avium (GC 4558) (Enterococcus sp.) | MIC Enterococcus faecalis (GC 6189) (Enterococcus sp.) | MIC Streptococcus pneumoniae (ATCC 6301) (Streptococcus sp.) | MIC Streptococcus pneumoniae (GC 1894) (Streptococcus sp.) | MIC Streptococcus pyogenes (GC 4563) (Streptococcus sp.) | MIC Streptococcus agalactiae (GC 4564) (Streptococcus sp.) | MIC Streptococcus pneumoniae (GC 4565) (Streptococcus sp.) | other results |
| --- | --- | --- | --- | --- | --- | --- | --- | --- | --- | --- | --- | --- | --- | --- | --- | --- | --- | --- | --- | --- | --- |
| CC(c1ccccc1)C1NC(=O)CNC(=O)C(CO)NC(=O)C(C(O)C2CNC(=N)N2C2OC(CO)C(O)C(O)C2O)NC(=O)C(C(O)C2CNC(=N)N2)NC(=O)C(Cc2ccc3oc(C=C(c4ccccc4)c4ccccc4)nc3c2)NC1=O (stereo not drawn) [Example 39, Cyclo[3-[2-(2,2-diphenylethenyl)-1,3-benzoxazol-5-yl]alanyl-3-(2-iminoimidazolidin-4-yl)seryl-3-(3-hexopyranosyl-2-iminoimidazolidin-4-yl)serylserylglycyl-β-methylphenylalanyl]] | 128 µg/mL (≈ 109 µM) | 128 µg/mL (≈ 109 µM) | 16 µg/mL (≈ 13.6 µM) | 16 µg/mL (≈ 13.6 µM) | 16 µg/mL (≈ 13.6 µM) | 8 µg/mL (≈ 6.81 µM) | 16 µg/mL (≈ 13.6 µM) | 16 µg/mL (≈ 13.6 µM) | 16 µg/mL (≈ 13.6 µM) | 8 µg/mL (≈ 6.81 µM) | 32 µg/mL (≈ 27.3 µM) | 32 µg/mL (≈ 27.3 µM) | 8 µg/mL (≈ 6.81 µM) | 8 µg/mL (≈ 6.81 µM) | 16 µg/mL (≈ 13.6 µM) | 8 µg/mL (≈ 6.81 µM) | 8 µg/mL (≈ 6.81 µM) | 4 µg/mL (≈ 3.41 µM) | 16 µg/mL (≈ 13.6 µM) | 16 µg/mL (≈ 13.6 µM) | MIC Staphylococcus aureus (ATCC 29213) (Staphylococcus sp.): 16 µg/mL (≈ 13.6 µM); MIC Staphylococcus aureus (GC 1131) (Staphylococcus sp.): 16 µg/mL (≈ 13.6 µM); MIC Staphylococcus aureus (GC 3051) (Staphylococcus sp.): 16 µg/mL (≈ 13.6 µM); MIC Staphylococcus aureus (GC 3053) (Staphylococcus sp.): 8 µg/mL (≈ 6.81 µM); MIC Staphylococcus aureus (GC 4541) (Staphylococcus sp.): 16 µg/mL (≈ 13.6 µM); MIC Staphylococcus aureus (GC 4542) (Staphylococcus sp.): 16 µg/mL (≈ 13.6 µM); MIC Staphylococcus aureus-SMITH (GC 4543) (Staphylococcus sp.): 16 µg/mL (≈ 13.6 µM); MIC Staphylococcus aureus (GC 4544) (Staphylococcus sp.): 16 µg/mL (≈ 13.6 µM); MIC Staphylococcus aureus (GC 4545) (Staphylococcus sp.): 16 µg/mL (≈ 13.6 µM); MIC Staphylococcus haemolyticus (GC 4546) (Staphylococcus sp.): 8 µg/mL (≈ 6.81 µM); MIC Coagulase Negative Staphylococcus (GC 4547) (Staphylococcus sp.): 8 µg/mL (≈ 6.81 µM); MIC Coagulase Negative Staphylococcus (GC 4548) (Staphylococcus sp.): 8 µg/mL (≈ 6.81 µM); MIC Coagulase Negative Staphylococcus (GC 4549) (Staphylococcus sp.): 4 µg/mL (≈ 3.41 µM); MIC Coagulase Negative Staphylococcus (GC 4551) (Staphylococcus sp.): 8 µg/mL (≈ 6.81 µM); MIC Coagulase Negative Staphylococcus (GC 6257) (Staphylococcus sp.): 4 µg/mL (≈ 3.41 µM) |
| CC(c1ccccc1)C1NC(=O)CNC(=O)C(CO)NC(=O)C(C(O)C2CNC(=N)N2C2OC(CO)C(O)C(O)C2O)NC(=O)C(C(O)C2CNC(=N)N2)NC(=O)C(Cc2ccc3oc(-c4ccccc4OC4OC(CO)C(O)C(O)C4O)nc3c2)NC1=O (stereo not drawn) [Example 36, Cyclo[3-[2-[2-(hexopyranosyloxy)phenyl]-1,3-benzoxazol-5-yl]alanyl-3-(2-iminoimidazolidin-4-yl)seryl-3-(3-hexopyranosyl-2-iminoimidazolidin-4-yl)serylserylglycyl-β-methyl-phenylalanyl]] | >128 µg/mL | 128 µg/mL (≈ 102 µM) | 64 µg/mL (≈ 51.2 µM) | >128 µg/mL | >128 µg/mL | >128 µg/mL | >128 µg/mL | >128 µg/mL | >128 µg/mL | 128 µg/mL (≈ 102 µM) | >128 µg/mL | >128 µg/mL | 128 µg/mL (≈ 102 µM) | 128 µg/mL (≈ 102 µM) | >128 µg/mL | >128 µg/mL | 128 µg/mL (≈ 102 µM) | 128 µg/mL (≈ 102 µM) | >128 µg/mL | >128 µg/mL | MIC Staphylococcus aureus (ATCC 29213) (Staphylococcus sp.): >128 µg/mL; MIC Staphylococcus aureus (GC 1131) (Staphylococcus sp.): >128 µg/mL; MIC Staphylococcus aureus (GC 3051) (Staphylococcus sp.): >128 µg/mL; MIC Staphylococcus aureus (GC 3053) (Staphylococcus sp.): >128 µg/mL; MIC Staphylococcus aureus (GC 4541) (Staphylococcus sp.): >128 µg/mL; MIC Staphylococcus aureus (GC 4542) (Staphylococcus sp.): >128 µg/mL; MIC Staphylococcus aureus-SMITH (GC 4543) (Staphylococcus sp.): >128 µg/mL; MIC Staphylococcus aureus (GC 4544) (Staphylococcus sp.): >128 µg/mL; MIC Staphylococcus aureus (GC 4545) (Staphylococcus sp.): >128 µg/mL; MIC Staphylococcus haemolyticus (GC 4546) (Staphylococcus sp.): 64 µg/mL (≈ 51.2 µM); MIC Coagulase Negative Staphylococcus (GC 4547) (Staphylococcus sp.): 64 µg/mL (≈ 51.2 µM); MIC Coagulase Negative Staphylococcus (GC 4548) (Staphylococcus sp.): 128 µg/mL (≈ 102 µM); MIC Coagulase Negative Staphylococcus (GC 4549) (Staphylococcus sp.): 64 µg/mL (≈ 51.2 µM); MIC Coagulase Negative Staphylococcus (GC 4551) (Staphylococcus sp.): >128 µg/mL; MIC Coagulase Negative Staphylococcus (GC 6257) (Staphylococcus sp.): 64 µg/mL (≈ 51.2 µM) |
